Patent publication US6734175B2, “Treatments for obesity and methods for identifiying compounds useful for treating obesity” (Pfizer Inc., priority 2000, dated 2004)

How the values were obtained:
[1] = test system: melanocortin receptors; experiment: [125I]NDP-MSH competition binding assay; settings: qualitative statement
Description: (§1) The first radioligand binding assay is an [^125I]AGRP competition binding assay. Compounds that attenuate binding of [^125I]AGRP or AGRP would be detected in this assay. It is noted that compounds can attenuate the binding of AGRP to melanocortin 3 and/or 4 receptors by binding to melanocortin 3 and/or 4 receptors or by binding to AGRP itself. The second radioligand binding assay is an assay using radiolabeled melanocortin ligands, for example, [^125I]norleucine D-phenylalanine melanocyte stimulating hormone ([^125I]NDP-MSH). Membranes prepared from cells expressing either melanocortin 3 or 4 receptors are used in the radioligand binding assays. The preparation and use of [^125I]AGRP and [^125I]NDP-MSH is well known in the art. See, for example, Dang et al., Molecular Endocrinology, 13, 148-155 (1999). In addition, the preparation and use of membranes from cells expressing either melanocortin 3 or 4 receptors are also well known in the art. See, Bass, et al., Molecular Pharmacology, 50, 709-715 (1996).
[^125I]NDP-MSH Competition Binding Assay
Specific Activity of [^125I]NDP-MSH is 2200 Ci/mmole. The final concentration of [^125I]NDP-MSH is 250 pM. Therefore, a 5 nM (20×) stock needs to be made in binding buffer. The concentration of [^125I]NDP-MSH varies from 40-60 nM. [^125I]NDP-MSH can be obtained from New England Nuclear, Boston, Mass.
(§2) The competition assay can be run using 96 well plates. […]

[2] = target: T1, melanocortin-4 receptors (Homo sapiens, UniProt P32245); experiment: [125I]AGRP competition binding assay; settings: particularly melanocortin-4 receptors; qualitative statement
T1 construct: host or cells: membranes from unnamed cells expressing the receptor
Description: as §1
[^125I] AGRP Competition Binding Assay
Specific Activity of [^125I]AGRP is 2200 Ci/mmole. The final concentration of [^125I]AGRP is 100 pM. Therefore, a 2 nM (20×) stock needs to be made in binding buffer. The concentration of [^125I]AGRP varies from 40-60 nM. [^125I]AGRP can be obtained from New England Nuclear, Boston, Mass.
as §2

T1 sequence (P32245 whole entry): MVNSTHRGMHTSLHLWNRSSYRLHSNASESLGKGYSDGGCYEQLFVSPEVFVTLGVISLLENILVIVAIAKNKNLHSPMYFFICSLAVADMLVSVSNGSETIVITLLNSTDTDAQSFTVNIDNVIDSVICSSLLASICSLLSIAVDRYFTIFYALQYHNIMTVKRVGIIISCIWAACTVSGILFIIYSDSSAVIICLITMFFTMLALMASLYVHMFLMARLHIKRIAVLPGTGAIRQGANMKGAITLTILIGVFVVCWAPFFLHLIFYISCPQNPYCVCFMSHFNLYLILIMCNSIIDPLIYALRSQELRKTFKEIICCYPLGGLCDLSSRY

Compound: O=[N+]([O-])c1ccc(N2C3c4ccccc4CCN3N(c3ccc([N+](=O)[O-])cc3)C3c4ccccc4CCN32)cc1 (centres unmarked) [8,16-bis-(4-nitro-phenyl)-5,6,8,8a,13,14,16,16a-octahydro-[1,2,4,5]tetrazino[6,1-a;3,4-a′]diisoquinoline]
- binding of α-melanocyte stimulating hormone to melanocortin receptors [1]: does not attenuate the binding of α-melanocyte stimulating hormone to melanocortin receptors
- binding of agouti-related protein to melanocortin receptors [2]: attenuates the binding of agouti-related protein to melanocortin receptors
